# Values of other authors, collected in patent US12582584B2, “Oxidizer and acid based system and regimen for enhancing skin appearance” (L'OREAL, priority 2021, dated 2026).
# Conditions: acute oral toxicity, mutagenicity, skin irritation, skin sensitization, phototoxicity
smiles,measurement,value
CC(c1ccccc1)c1ccc(O)cc1O (stereo not shown) [Phenylethyl resorcinol],Adverse effects in basic toxicological tests,has not shown adverse effects
